PubChem BioAssay (NCI)
“And” between values parts separate entries of the source, which are not always exact repeats. Equal values may be shown once.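 Tested at 5 concentrations; 48 h exposure; 96-well plates; endpoints linearly interpolated, else capped at highest concentration. GI50 marks 50% less growth. TGI is the concentration that stops growth completely.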

Key:
Test in all cases: NCI anticancer screen, dose series, 48 h
HOP-92 NSCLC = system: HOP-92 NSCLC
MDA-MB-231 breast = system: MDA-MB-231 breast
MOLT-4 leukemia = system: MOLT-4 leukemia
OVCAR-4 ovarian = system: OVCAR-4 ovarian
RPMI-8226 leukemia = system: RPMI-8226 leukemia
SK-MEL-28 melanoma = system: SK-MEL-28 melanoma
TK-10 renal = system: TK-10 renal
UACC-257 melanoma = system: UACC-257 melanoma

Row | SMILES | GI50 (HOP-92 NSCLC) | TGI (HOP-92 NSCLC) | GI50 (MDA-MB-231 breast) | TGI (MDA-MB-231 breast) [µM] | GI50 (MOLT-4 leukemia) | TGI (MOLT-4 leukemia) | GI50 (OVCAR-4 ovarian) | TGI (OVCAR-4 ovarian) | GI50 (RPMI-8226 leukemia) | TGI (RPMI-8226 leukemia) | GI50 (SK-MEL-28 melanoma) | TGI (SK-MEL-28 melanoma) | GI50 (TK-10 renal) | TGI (TK-10 renal) | GI50 (UACC-257 melanoma) | TGI (UACC-257 melanoma)
1 | COC1CC2CCC(C)C(O)(O2)C(=O)C(=O)N2CCCCC2C(=O)OC(C(C)CC2CCC(O)C(OC)C2)CC(=O)C(C)C=C(C)C(O)C(OC)C(=O)C(C)CC(C)/C=C/C=C/C=C1C (stereo not drawn) | 0.0107 µM | 7.48 µM | 4.32 µM | 12.9 | 0.0787 µM | 13.9 µM | < 0.005 µM | 10.5 µM | 0.0903 µM | 19.3 µM | 3.23 µM | 11.2 µM | 5.62 µM | 19.7 µM | 4.46 µM | 12.5 µM
2 | COC(=O)C1=C(C(=O)ON)C2C=CC1(C(Cc1ccccc1)Nc1ccccc1)O2 (stereo not drawn) | 1.51 µM | 2.91 µM | 1.87 µM | 3.59 | 2.9 µM | 9.49 µM | 1.66 µM | 3.12 µM | 2.33 µM | 6.51 µM | 1.92 µM | 3.66 µM | 1.71 µM | 3.08 µM | 1.81 µM | 3.34 µM
3 | COc1cc(C)c(Cl)cc1C1=NN(c2ccc(S(N)(=O)=O)cc2)C(/C=C/c2ccccc2)C1 (stereo not drawn) |  |  | 3.3 µM | 10.8 | 3.37 µM | 64.4 µM | 2.77 µM | 24.9 µM | 2.76 µM | 7.93 µM | 3.1 µM | 11.4 µM | 3.25 µM | 11.5 µM | 3.58 µM | 20.5 µM
4 | COc1ncc(-c2ccc3nccc(-c4ccnnc4)c3c2)cc1NS(=O)(=O)c1ccc(F)cc1F | 0.00109 µM and < 0.01 µM | 0.00872 µM and < 0.01 µM | 0.0392 µM and 0.0439 µM | 1.83 | 0.00505 µM and < 0.01 µM | 0.801 µM and 0.579 µM | 0.033 µM and 0.0217 µM |  | 0.0321 µM and 0.0297 µM | 0.656 µM and 0.963 µM | 0.00213 µM and < 0.01 µM | 0.0395 µM and 0.36 µM | 0.00325 µM and < 0.01 µM | 0.0831 µM and 0.0719 µM | 0.00627 µM and < 0.01 µM | 0.378 µM and 0.0615 µM
5 | CC1=C2C[C@H]3[C@@H](CC[C@@H]4CC(NS(C)(=O)=O)CC[C@@]43C)[C@@H]2CC[C@@]2(C1)O[C@@H]1C[C@H](C)CN[C@H]1[C@H]2C (stereo partly drawn) | 1.15 µM | 12.7 µM | 5.68 µM | 18.8 | 5.5 µM | 23.2 µM | 1.66 µM | 4.79 µM | 7.62 µM | 29.5 µM | 4.81 µM | 11.3 µM | 11.3 µM | 24.4 µM | 6.28 µM | 18.9 µM
6 | CCOC(=O)c1[nH]c(Br)c(-c2ccc(Br)cc2)c1Br | 1.58 µM | 7.86 µM and 7.98 µM | 0.782 µM | 7.07 |  | 11.4 µM |  | 3.6 µM and 3.5 µM | 0.357 µM | 3.92 µM |  | 22.1 µM | 2.34 µM | 9.99 µM and 11.3 µM | 0.597 µM | 42.9 µM
7 | COC(=O)c1c2c(c(C)[n+]([O-])c1C)C(=O)C=C(NCc1ccc(F)c(Cl)c1)C2=O | 1.69 µM | 3.84 µM | 0.269 µM | 3.42 | 0.404 µM | 2.19 µM | 0.151 µM | 0.603 µM | 0.839 µM | 3.93 µM | 0.411 µM | 2.15 µM | 2.22 µM | 5.49 µM | 0.171 µM | 0.64 µM
8 | CCOc1ccc(-c2nonc2NC(=O)c2cccc(C)c2)cc1OCC | 21.1 µM | 59.1 µM | 19.5 µM | 62.5 | > 100 µM | > 100 µM | > 100 µM | > 100 µM | > 100 µM | > 100 µM | > 100 µM | > 100 µM | 22.7 µM | 46.8 µM | > 100 µM | > 100 µM
9 | O=c1nc2n(-c3ccc(Cl)cc3)c3ccc([N+](=O)[O-])cc3cc-2c(=O)[nH]1 |  |  | 17.3 µM | 44.5 | 13.4 µM | > 100 µM | 71.5 µM | > 100 µM | 12.3 µM | 47.7 µM | 24.9 µM | 61.6 µM | 25.7 µM | 62.7 µM | 23.4 µM | 62.5 µM
10 | C#CCC(Cc1cnc2nc(N)nc(N)c2n1)c1ccc(C(=O)N[C@@H](CCC(=O)O)C(=O)O)cc1 (stereo partly drawn) |  |  |  |  | < 0.01 µM | > 100 µM | 0.975 µM | > 100 µM | < 0.01 µM | > 100 µM | 0.0901 µM | > 100 µM | < 0.01 µM | > 100 µM | 0.0243 µM | > 100 µM
11 | N#Cc1nc2c(S(=O)(=O)c3ccccc3)c(N)n(Cc3cccnc3)c2nc1C#N | 4.71 µM | 28.5 µM | 11.8 µM | 52.2 | > 100 µM | > 100 µM | > 100 µM | > 100 µM | > 100 µM | > 100 µM | 27.8 µM | > 100 µM | 26.1 µM | 97 µM | > 100 µM | > 100 µM
12 | CC(C)(C)c1nn(-c2ccccc2)c2c1C(=O)CSC(c1ccccc1Cl)N2 (stereo not drawn) | 0.82 µM | 14.4 µM | 3.57 µM | 16 | 3.42 µM | 16.5 µM | 8.48 µM | 21.9 µM | 3.02 µM | 19.3 µM | 5.18 µM | 22.5 µM | 11.1 µM | 29.4 µM | 2.78 µM | 14.7 µM
13 | O=NNc1ccc(S(=O)(=O)c2ccccc2)cn1 |  |  |  | > 100 |  | > 100 µM |  | > 100 µM |  |  |  | > 100 µM |  | > 100 µM |  | > 100 µM
14 | COc1ccc(/C=C/C(=O)c2ccc(SC)cc2)cc1OC | 13.7 µM | 31.2 µM | 9.05 µM | 33.7 | 22.4 µM | > 100 µM | 40.5 µM | > 100 µM | 4.02 µM | 21.2 µM | 18.2 µM | 39.8 µM | 14.7 µM | 32.8 µM | 17 µM | 30.9 µM
15 | O=C1c2cc3c(cc2-c2c1c1ccc(Cl)cc1c(=O)n2CCCNCCO)OCO3 | 1.08 µM | 2.57 µM | 1.73 µM | 3.49 | 0.031 µM | 0.512 µM | 1.48 µM | 3.32 µM | 0.145 µM | 3.27 µM | 1.43 µM | 3.26 µM | 1.5 µM | 2.94 µM | 0.666 µM | 2.43 µM
